Measured values taken from patent publication EP0714404B1, “ANTI-INFLAMMATORY PEPTIDES” (CURATIVE TECHNOLOGIES, INC., priority 1993, dated 1995).
Where two headings read alike, the source gives them in different places. Residues, ends and D or L forms follow the SMILES beside them.

Tested on: Arachidonic Acid Induced Inflammation
Format: in vivo, mice
Conditions: for % Reduction of Ear Swelling / Ear Thickness: sc minipump
Procedure: The anti-inflammatory properties of CT-112 (SEQ. ID NO: 1) were assessed using a standardized assay for anti-inflammatory activity, i.e., the mouse ear model in which arachidonic acid (AA) is used to induce an inflammatory reaction (Young et al., 1984, J. Invest. Dermatol. 82:367-371; Doherty, et al., 1988, J. Invest. Dermatol. 91:298-302).
Female mice (C57BL/6UAF, Charles River Breeding Laboratories, approximately 15-18 g) were obtained and acclimated for 2 weeks prior to use. The animals were approximately 14 weeks old at the start of the study.
To prepare minipumps for implantation, CT-112 (SEQ. ID NO: 1) was dissolved in PBS. The material was loaded into Alzet minipumps set to deliver 0.05 (5 animals), 0.1 (10 animals), 1 (10 animals), or 2.5 (5 animals) mg of CT-112 (SEQ. ID NO: 1) per animal per day. Minipumps for implantation into control animals contained only PBS. As a positive control, one set of 10 mice received 100 mg/kg of phenidone, a potent 5-lipoxygenase inhibitor which acts as an anti-inflammatory agent, 15 min prior to challenge with AA.
For subcutaneous implantation of minipumps, animals were anesthetized with Ketamine/Xylazine. The Ketamine (Aveco Lot #440140) was injected at 80 mg/kg and the Xylazine (Rugby Laboratories Lot #26040-B) at 16 mg/kg and the Alzet pumps were implanted subcutaneously in the dorsothoracic area. Animals were allowed to recover and then housed and given food and water ad libitum for 5 days.
On the sixth day following pump implantation, 0.01 ml of AA was applied to the inner and outer surfaces of the right ear by means of an automatic microliter pipette. One hr following AA application, the mice were sacrificed and ear thickness was measured with a Mitutoyo No. 7300 Gauge Caliper. The left ears were also measured as an internal control.
Mice were implanted with Alzet mini-pumps set to deliver 60 mg/kg/day for either 7, 3, or 1 days. A separate group of 5 mice received 3 intraperitoneal injections of CT-112 (60 mg/kg/injection) at 24, 1 and 0.25 hr prior to AA challenge. CT-112 (SEQ. ID NO: 1) was prepared for injection by dissolving the compound in Dulbecco's PBS to give a final CT-112 (SEQ. ID NO: 1) concentration of 5 mg/ml. The control mice were implanted with Alzet minipumps that delivered PBS for 7 days. The AA challenge was the same as described supra in Example 7.
Administration of CT-112 (SEQ. ID NO: 1) (60 mg/kg/injection) via multiple intraperitoneal injections was performed at the following times prior to AA challenge: • a) 6, 3, 1 and 0.25 hr; • b) 3, 1 and 0.25 hr; or • c) 1 and 0.25 hr.
In addition, the effect of a single administration of CT-112 (SEQ. ID NO: 1) (60 mg/kg) by intraperitoneal injection was performed at either 1 or 3 hr prior to AA challenge. Control mice had Alzet minipumps implanted to deliver PBS for 7 days prior to AA challenge. The AA challenge was the same as described supra in Example 7. The results of the multiple dosing regimens and the 1 hr and 3 hr single dosing regimens were compared to the anti-inflammatory activity of CT-112 (SEQ. ID NO: 1) delivered via Alzet minipump set to deliver 60 mg/kg/day for 7 days using 5 animals per treatment.
In a separate experiment, the effect of multiple intraperitoneal injections of CT-112 (SEQ. ID NO: 1) at either 6, 3, 1 and 0.25 hr, or 16, 3, 1 and 0.25 hr prior to AA challenge was assessed. The results of both multi-dosing regimens were compared to both phenidone (100 mg/kg administered 15 min prior to AA challenge) and CT-112 (SEQ. ID NO: 1) administered via Alzet mini-pump (60 mg/kg/day for 7 days). For this latter study, the number of animals receiving the single injection of CT-112 (SEQ. ID NO: 1) was increased from 5 to 10.
Administration to mice of CT-112 (SEQ. ID NO: 1) (60 mg/kg/injection) via multiple subcutaneous injections prior to AA challenge was performed at: • a) 6, 3, 1 and 0.25 hr; • b) 3, 1 and 0.25 hr; or • c) 1 and 0.25 hr. […]

[1] = 0.05 mg/animal/day, AA on sixth day

Q: What does the source list for `CC(C)[C@H](NC(=O)[C@H](CCC(N)=O)NC(=O)[C@H](CO)NC(=O)[C@@H](NC(=O)[C@@H](N)[C@@H](C)O)[C@@H](C)O)C(=O)N[C@@H](CCCNC(=N)N)C(=O)N1CCC[C@H]1C(=O)N[C@@H](CCCNC(=N)N)C(=O)O` [CT-112, Thr-Thr-Ser-Gln-Val-Arg-Pro-Arg] (H-TTSQVRPR-OH)?
A: % Reduction of Ear Swelling [1]: 43.1%; Ear Thickness [1]: 0.01577 ± 0.00155 (5) in; % Reduction of Ear Swelling (0.1 mg/animal/day): 43.1%; Ear Thickness (0.1 mg/animal/day): 0.01577 ± 0.00191 (10) in; % Reduction of Ear Swelling (1.0 mg/animal/day): 89.0%; Ear Thickness (1.0 mg/animal/day): 0.01128 ± 0.00291 (10) in; % Reduction of Ear Swelling (2.5 mg/animal/day): 95.6%; Ear Thickness (2.5 mg/animal/day): 0.0106 ± 0.00175 (5) in; Thickness Difference (Left-Right) (Table III, 1-day pump, 60 mg/kg/day): -0.00074 ± 0.00119 in; Thickness Difference (Left-Right) (Table III, 3-day pump, 60 mg/kg/day): -0.00115 ± 0.00058 in; Thickness Difference (Left-Right) (Table III, 7-day pump, 60 mg/kg/day): -0.00051 ± 0.00116 in; Thickness Difference (Left-Right) (Table III, ip 60 mg/kg/injection at 24, 1 and 0.25 hr prior to AA): 0.00226 ± 0.00124 in; Thickness Difference (Left-Right) (Table IV, 7-day pump, 60 mg/kg/day): 0.00033 ± 0.00065 in; Thickness Difference (Left-Right) (Table IV, ip 60 mg/kg/injection at 1 and 0.25 hr prior to AA): 0.00192 ± 0.00148 in; Thickness Difference (Left-Right) (Table IV, ip 60 mg/kg/injection at 3, 1 and 0.25 hr prior to AA): 0.00141 ± 0.00138 in; Thickness Difference (Left-Right) (Table IV, ip 60 mg/kg/injection at 6, 3, 1 and 0.25 hr prior to AA): 0.00144 ± 0.00126 in; Thickness Difference (Left-Right) (Table IV, single ip 60 mg/kg 1 hr prior to AA): 0.00308 ± 0.00189 in; Thickness Difference (Left-Right) (Table IV, single ip 60 mg/kg 3 hr prior to AA): 0.00116 ± 0.001 in; Thickness Difference (Left-Right) (Table V, 7-day pump, 60 mg/kg/day): -0.00003 ± 0.0012(5) in; Thickness Difference (Left-Right) (Table V, ip injections at 6, 3, 1 and 0.25 hr prior to AA): 0.00249 ± 0.0017(10) in; Thickness Difference (Left-Right) (Table V, ip injections at 16, 3, 1 and 0.25 hr prior to AA): 0.00283 ± 0.00218(10) in; Thickness Difference (Left-Right) (Table VI, 7-day pump, 60 mg/kg/day): 0.00083 ± 0.00084 in; Thickness Difference (Left-Right) (Table VI, sc 60 mg/kg/injection at 1 and 0.25 hr prior to AA): 0.00195 ± 0.00131 in; Thickness Difference (Left-Right) (Table VI, sc 60 mg/kg/injection at 3, 1 and 0.25 hr prior to AA): 0.00193 ± 0.0007 in; Thickness Difference (Left-Right) (Table VI, sc 60 mg/kg/injection at 6, 3, 1 and 0.25 hr prior to AA): 0.00147 ± 0.00041 in; Thickness Difference (Left-Right) (Table VI, single sc 60 mg/kg 1 hr prior to AA): 0.00174 ± 0.00128 in; Thickness Difference (Left-Right) (Table VI, single sc 60 mg/kg 3 hr prior to AA): 0.00213 ± 0.00089 in; Thickness Difference (Left-Right) (Table VII, 3 day pump, 60 mg/kg/day): 0.00127 ± 0.00128 in; Thickness Difference (Left-Right) (Table VII, single ip 3 hr prior to AA): 0.00242 ± 0.00187 in; Thickness Difference (Left-Right) (Table VII, single sc 1 hr prior to AA): 0.00214 ± 0.00122 in; Thickness Difference (Left-Right) (Table VII, single sc 3 hr prior to AA): 0.00243 ± 0.00107 in; Thickness Difference (Left-Right) (Table VII, single sc 6 hr prior to AA): 0.00117 ± 0.00066 in; Thickness Difference (Left-Right) (Table VII, single sc -.25 (hr) prior to AA): 0.00252 ± 0.00128 in; Thickness Difference (Left-Right) (Table VIII, 3 day pump, 60 mg/kg/day): 0.00058 ± 0.00086 in; Thickness Difference (Left-Right) (Table VIII, po 200 mg/kg/gavage at 1 and 0.25 hr prior to AA): 0.00241 ± 0.00124 in; Thickness Difference (Left-Right) (Table VIII, po 200 mg/kg/gavage at 3, 1 and 0.25 hr prior to AA): 0.0028 ± 0.00114 in; Thickness Difference (Left-Right) (Table VIII, po 200 mg/kg/gavage at 6, 3, 1 and 0.25 hr prior to AA): 0.00134 ± 0.00257 in; Thickness Difference (Left-Right) (Table VIII, single gavage 200 mg/kg 1 hr prior to AA): 0.00139 ± 0.00122 in; Thickness Difference (Left-Right) (Table VIII, single gavage 200 mg/kg 3 hr prior to AA): 0.00031 ± 0.00198 in; Thickness Difference (Left-Right) (Table XI, 6 mg/kg/day, minipump, AA three days after implantation): 0.00381 ± 0.00066 in; Thickness Difference (Left-Right) (Table XI, 60 mg/kg/day, minipump, AA three days after implantation): 0.00095 ± 0.00064 in; Thickness Difference (Left-Right) (Table XIII, 24 hr via Alzet pump, 60 mg/kg/day): 0.00132 ± 0.00086 in; Difference Treatment (Left - Right) (Table XIV, 24 hr via Alzet pump, 60 mg/kg/day): 0.00134 ± 0.00044 in; Thickness Difference (Left-Right) (Table XV, 24 hr via Alzet pump, 60 mg/kg/day): 0.00154 ± 0.00092 in; % Inhibition of Inflammation (mouse, in vivo, 6 mg/kg/day): 40.8%; % Inhibition of Inflammation (mouse, in vivo, 60 mg/kg, 3 h): 78.5%; % Inhibition of Inflammation (mouse, in vivo, 200 mg/kg, 1 h): 72.3%; % Inhibition of Inflammation (mouse, in vivo, 200 mg/kg, 3 h): 93.8%; % Inhibition of Inflammation (mouse, in vivo, ip, 60 mg/kg): 62%; % Inhibition of Inflammation (mouse, in vivo, ip, 3 h): 37.2%; inhibition of the inflammatory process (mouse, in vivo, po, 200 mg/kg): 52-94%; % Inhibition of Inflammation (mouse, in vivo, sc): 34.7%; % Inhibition of Inflammation (mouse, in vivo, sc, 60 mg/kg, 1 h): 71.8%; % Inhibition of Inflammation (mouse, in vivo, sc, 60 mg/kg, 3 h): 65.5%; % Inhibition of Inflammation (mouse, in vivo, sc, 1 h): 44.5%; % Inhibition of Inflammation (mouse, in vivo, sc, 3 h): 36.9%; % Inhibition of Inflammation (mouse, in vivo, sc, 6 h): 69.6%; reduction in inflammation (multiple IP injections at 6, 3, 1 and 0.25 hr or 16, 3, 1 and 0.25 hr prior to AA): 56-61%; duration of activity (subcutaneous injection, 60 mg/kg): greater than 6 hr; inhibition of the inflammatory process (subcutaneous injection, all multi-dosing and single-dosing regimens, 60 mg/kg/injection): approximately 70%
